Experiments:
recombinant Plk1 = recombinant Plk1 (Homo sapiens, UniProt P53350); test: In Vitro Plk1 Enzyme Assay (SPA, GST-Cdc25C phosphorylation); format: biochemical; conditions: ATP 64 nM, 90 minutes, read-out: IC50 (Plk1 enzyme inhibition)
[1] = system: human colon tumour cell line HT29; test: Cellular Assay (phosphohistone H3 Ser10 mitotic marker, HT29); format: cell-based; conditions: HT-29, 24 h, HT29 cells, read-out: IC50 (cellular assay, phosphohistone H3)

Sequence of recombinant Plk1 (P53350 whole entry): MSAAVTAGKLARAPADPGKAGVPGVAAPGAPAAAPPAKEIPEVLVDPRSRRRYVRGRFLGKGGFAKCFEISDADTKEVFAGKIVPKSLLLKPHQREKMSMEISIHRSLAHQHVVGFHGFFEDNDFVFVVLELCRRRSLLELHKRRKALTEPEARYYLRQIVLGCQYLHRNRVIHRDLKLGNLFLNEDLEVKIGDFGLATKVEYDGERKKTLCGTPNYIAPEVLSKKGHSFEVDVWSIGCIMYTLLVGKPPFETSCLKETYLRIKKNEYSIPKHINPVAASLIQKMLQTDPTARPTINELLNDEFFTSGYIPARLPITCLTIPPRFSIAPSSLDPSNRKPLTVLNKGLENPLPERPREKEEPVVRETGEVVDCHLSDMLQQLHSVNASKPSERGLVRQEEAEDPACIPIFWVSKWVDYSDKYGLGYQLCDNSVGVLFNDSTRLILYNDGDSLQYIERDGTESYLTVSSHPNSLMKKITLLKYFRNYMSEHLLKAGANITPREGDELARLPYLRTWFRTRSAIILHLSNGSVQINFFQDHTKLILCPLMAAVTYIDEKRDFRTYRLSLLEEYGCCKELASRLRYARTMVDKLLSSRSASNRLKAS

IC50 (recombinant Plk1) | IC50 [1] | Molecule
< 1000 nM | – | 6-cyclopentyl-2-methyl-9-[(2,3,4-trimethoxyphenyl)amino]-2,6,8,10-tetrazabicyclo[5.4.0]undeca-8,10,12-trien-3-one [Example 130]
< 1000 nM | – | 6-cyclopentyl-2-methyl-9-[(2,4,6-trimethoxyphenyl)amino]-2,6,8,10-tetrazabicyclo[5.4.0]undeca-8,10,12-trien-3-one [Example 112]
< 1000 nM | – | 6-cyclopentyl-9-[[5-(3-dimethylaminopyrrolidin-1-yl)-2-methoxy-phenyl]amino]-2-methyl-2,6,8,10-tetrazabicyclo[5.4.0]undeca-8,10,12-trien-3-one [Example 182]
< 100000 nM | – | CCCC1CN(C2CCCC2)c2nc(Nc3ccc(C(=O)NC4CCN(C)CC4)cc3OC)ncc2N(C)C1=O (single isomer, unassigned) [Example 239]
< 300 nM | – | COc1cc(C(=O)NC2CCN(C)CC2)ccc1Nc1ncc2c(n1)N(C1CCOCC1)CCC(=O)N2C [Example 9, 3-Methoxy-4-[[6-methyl-2-(oxan-4-yl)-5-oxo-2,6,9,11-tetrazabicyclo[5.4.0]undeca-7,9,11-trien-10-yl]amino]-N-(1-methyl-4-piperidyl)benzamide]
< 1000 nM | – | COc1cc(C(=O)NCCN2CCCCC2)ccc1Nc1ncc2c(n1)N(C1CCCC1)CCC(=O)N2C [Example 12, 4-[(6-cyclopentyl-2-methyl-3-oxo-2,6,8,10-tetrazabicyclo[5.4.0]undeca-8,10,12-trien-9-yl)amino]-3-methoxy-N-[2-(1-piperidyl)ethyl]benzamide]
< 1000 nM | – | COC(=O)[C@H]1CC[C@@H](NC(=O)c2ccc(Nc3ncc4c(n3)N(C3CCCC3)CCC(=O)N4C)c(OC)c2)C1 [Example 65, Methyl(1S,3R)-3-[[4-[(6-cyclopentyl-2-methyl-3-oxo-2,6,8,10-tetrazabicyclo[5.4.0]undeca-8,10,12-trien-9-yl)amino]-3-methoxy-benzoyl]amino]cyclopentane-1-carboxylate]
< 300 nM | – | COc1cc(C(=O)N[C@@H]2CC[C@H](C(=O)O)C2)ccc1Nc1ncc2c(n1)N(C1CCCC1)CCC(=O)N2C [Example 87, (1S,3R)-3-[[4-[(6-cyclopentyl-2-methyl-3-oxo-2,6,8,10-tetrazabicyclo[5.4.0]undeca-8,10,12-trien-9-yl)amino]-3-methoxy-benzoyl]amino]cyclopentane-1-carboxylic acid]
< 300 nM | – | CC(C)NC(=O)c1ccc(Nc2ncc3c(n2)N(C2CCCC2)CCC(=O)N3C)cc1 [Example 100, 4-[(6-cyclopentyl-2-methyl-3-oxo-2,6,8,10-tetrazabicyclo[5.4.0]undeca-8,10,12-trien-9-yl)amino]-N-propan-2-yl-benzamide]
< 300 nM | – | CNC(=O)c1ccc(Nc2ncc3c(n2)N(C2CCCC2)CCC(=O)N3C)cc1 [Example 102, 4-[(6-cyclopentyl-2-methyl-3-oxo-2,6,8,10-tetrazabicyclo[5.4.0]undeca-8,10,12-trien-9-yl)amino]-N-methyl-benzamide]
< 300 nM | – | COc1cc(C(=O)O)ccc1Nc1ncc2c(n1)N(C1CCCC1)CCC(=O)N2C [Example 111, 4-[(2-cyclopentyl-6-methyl-5-oxo-2,6,9,11-tetrazabicyclo[5.4.0]undeca-7,9,11-trien-10-yl)amino]-3-methoxy-benzoic acid]
< 100000 nM | – | CN1C(=O)CCN(C2CCCC2)c2nc(Nc3ccc(C#N)c(C(F)(F)F)c3)ncc21 [Example 116, 4-[(6-cyclopentyl-2-methyl-3-oxo-2,6,8,10-tetrazabicyclo[5.4.0]undeca-8,10,12-trien-9-yl)amino]-2-(trifluoromethyl)benzonitrile]
< 100000 nM | – | CN1C(=O)CCN(C2CCCC2)c2nc(Nc3ccc(S(=O)(=O)NCCO)cc3)ncc21 [Example 117, 4-[(6-cyclopentyl-2-methyl-3-oxo-2,6,8,10-tetrazabicyclo[5.4.0]undeca-8,10,12-trien-9-yl)amino]-N-(2-hydroxyethyl)benzenesulfonamide]
< 100000 nM | – | CN(C)CCOc1ccc(Nc2ncc3c(n2)N(C2CCCC2)CCC(=O)N3C)cc1 [Example 118, 6-cyclopentyl-9-[[4-(2-dimethylaminoethoxy)phenyl]amino]-2-methyl-2,6,8,10-tetrazabicyclo[5.4.0]undeca-8,10,12-trien-3-one]
< 100000 nM | – | COc1ccc(Nc2ncc3c(n2)N(C2CCCC2)CCC(=O)N3C)cc1 [Example 120, 6-cyclopentyl-9-[(4-methoxyphenyl)amino]-2-methyl-2,6,8,10-tetrazabicyclo[5.4.0]undeca-8,10,12-trien-3-one]
< 100000 nM | – | CN1C(=O)CCN(C2CCCC2)c2nc(Nc3ccc(N4CCOCC4)cc3)ncc21 [Example 121, 6-cyclopentyl-2-methyl-9-[(4-morpholin-4-ylphenyl)amino]-2,6,8,10-tetrazabicyclo[5.4.0]undeca-8,10,12-trien-3-one]
< 1000 nM | – | COc1cc(Nc2ncc3c(n2)N(C2CCCC2)CCC(=O)N3C)cc(OC)c1OC [Example 129, 6-cyclopentyl-2-methyl-9-[(3,4,5-trimethoxyphenyl)amino]-2,6,8,10-tetrazabicyclo[5.4.0]undeca-8,10,12-trien-3-one]
< 100000 nM | – | CN1C(=O)CCN(C2CCCC2)c2nc(Nc3ccc(S(=O)(=O)N4CCCCC4)cc3)ncc21 [Example 134, 6-cyclopentyl-2-methyl-9-[[4-(1-piperidylsulfonyl)phenyl]amino]-2,6,8,10-tetrazabicyclo[5.4.0]undeca-8,10,12-trien-3-one]
– | < 300 nM | CN1CCC(NC(=O)c2cc(F)c(Nc3ncc4c(n3)N(C3CCCCC3)CC3(CC3)C(=O)N4C)cc2F)CC1 [Example 436, 4-(9′-cyclohexyl-5′-methyl-6′-oxo-5′,6′,8′,9′-tetrahydrospiro[cyclopropane-1,7′-pyrimido[5,4-b][1,4]diazepine]-2′-ylamino)-2,5-difluoro-N-(1-methyl-4-piperidyl)benzamide]
– | < 300 nM | CN1C(=O)C2(CC2)CN(C2CCCCC2)c2nc(Nc3cc(F)c(C(=O)NC4CCC(N(C)C)CC4)cc3Cl)ncc21 (centres unmarked) [Example 437, 5-chloro-4-(9′-cyclohexyl-5′-methyl-6′-oxo-5′,6′,8′,9′-tetrahydrospiro[cyclopropane-1,7′-pyrimido[5,4-b][1,4]diazepine]-2′-ylamino)-N-(4-dimethylaminocyclohexyl)-2-fluoro-benzamide]
– | < 300 nM | COc1cc(C(=O)N[C@@H]2CCN(C)C2)c(F)cc1Nc1ncc2c(n1)N(C1CCCCC1)CC1(CC1)C(=O)N2C [Example 438, 4-(9′-cyclohexyl-5′-methyl-6′-oxo-5′,6′,8′,9′-tetrahydrospiro[cyclopropane-1,7′-pyrimido[5,4-b][1,4]diazepine]-2′-ylamino)-2-fluoro-5-methoxy-N-[(3R)-1-methylpyrrolidin-3-yl]benzamide]
– | < 300 nM | COc1cc(C(=O)NCC(C)(C)CN2CCCC2)ccc1Nc1ncc2c(n1)N(C1CCCCC1)CC1(CC1)C(=O)N2C [Example 440, 4-(9′-cyclohexyl-5′-methyl-6′-oxo-5′,6′,8′,9′-tetrahydrospiro[cyclopropane-1,7′-pyrimido[5,4-b][1,4]diazepine]-2′-ylamino)-N-(2,2-dimethyl-3-pyrrolidin-1-yl-propyl)-3-methoxy-benzamide]
– | < 300 nM | CCN1CC[C@@H](NC(=O)c2ccc(Nc3ncc4c(n3)N(C3CCCCC3)CC3(CC3)C(=O)N4C)c(OC)c2)C1 [Example 441, 4-(9′-cyclohexyl-5′-methyl-6′-oxo-5′,6′,8′,9′-tetrahydrospiro[cyclopropane-1,7′-pyrimido[5,4-b][1,4]diazepine]-2′-ylamino)-N-[(3R)-1-ethylpyrrolidin-3-yl]-3-methoxy-benzamide]
– | < 300 nM | CCN1CCC(NC(=O)c2cc(OC)c(Nc3ncc4c(n3)N(C3CCCCC3)CC3(CC3)C(=O)N4C)cc2F)CC1 [Example 443, 4-(9′-cyclohexyl-5′-methyl-6′-oxo-5′,6′,8′,9′-tetrahydrospiro[cyclopropane-1,7′-pyrimido[5,4-b][1,4]diazepine]-2′-ylamino)-N-(1-ethyl-4-piperidyl)-2-fluoro-5-methoxy-benzamide]
– | < 300 nM | COc1cc(C(=O)NCCN2CCCC2)c(F)cc1Nc1ncc2c(n1)N(C1CCCCC1)CC1(CC1)C(=O)N2C [Example 444, 4-(9′-cyclohexyl-5′-methyl-6′-oxo-5′,6′,8′,9′-tetrahydrospiro[cyclopropane-1,7′-pyrimido[5,4-b][1,4]diazepine]-2′-ylamino)-2-fluoro-5-methoxy-N-(2-pyrrolidin-1-ylethyl)benzamide]
– | < 300 nM | COc1cc(C(=O)NCC2(CN3CCCC3)CC2)c(F)cc1Nc1ncc2c(n1)N(C1CCCCC1)CC1(CC1)C(=O)N2C [Example 445, 4-(9′-cyclohexyl-5′-methyl-6′-oxo-5′,6′,8′,9′-tetrahydrospiro[cyclopropane-1,7′-pyrimido[5,4-b][1,4]diazepine]-2′-ylamino)-2-fluoro-5-methoxy-N-[[1-(pyrrolidin-1-ylmethyl)cyclopropyl]methyl]benzamide]
– | < 300 nM | CN1CCC(NC(=O)c2ccc(Nc3ncc4c(n3)N(C3CCCCC3)CC3(CC3)C(=O)N4C)c(F)c2)CC1 [Example 446, 4-(9′-cyclohexyl-5′-methyl-6′-oxo-5′,6′,8′,9′-tetrahydrospiro[cyclopropane-1,7′-pyrimido[5,4-b][1,4]diazepine]-2′-ylamino)-3-fluoro-N-(1-methyl-4-piperidyl)benzamide]
– | < 300 nM | COc1cc(C(=O)NC2CCCCN(C)C2)ccc1Nc1ncc2c(n1)N(C1CCCC1)CCC(=O)N2C (centres unmarked) [Example 453, 4-[(2-cyclopentyl-6-methyl-5-oxo-2,6,9,11-tetrazabicyclo[5.4.0]undeca-7,9,11-trien-10-yl)amino]-3-methoxy-N-(1-methylazepan-3-yl)benzamide]

Molecule | IC50 (recombinant Plk1) | IC50 [1]
COc1cc(C(=O)NC2C[C@H]3CCC[C@@H](C2)N3C)c(F)cc1Nc1ncc2c(n1)N(C1CCCCC1)CC1(CC1)C(=O)N2C (stereo partly drawn) [Example 442, 4-(9′-cyclohexyl-5′-methyl-6′-oxo-5′,6′,8′,9′-tetrahydrospiro[cyclopropane-1,7′-pyrimido[5,4-b][1,4]diazepine]-2′-ylamino)-2-fluoro-5-methoxy-N-[(1S,5R)-9-methyl-9-azabicyclo[3.3.1]non-3-yl]benzamide] | – | < 300 nM

— US7709471B2, “Compounds” (AstraZeneca AB, priority 2006, dated 2010)
